In patent publication US12077503B2, “Substituted cyclic amides and their use as herbicides” (FMC CORPORATION, priority 2015, dated 2024):

Columns and labels:
Assay in all cases: Test C preemergence
Type in all cases: in vivo
[1] = tested on: Galium (catchweed bedstraw, Galium aparine); settings: for Plant response rating, Galium: scale 0 to 100, 0 no effect, 100 complete control
In short: (§1)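 Preemergence application to seeds in loam/sand soil, or foliar (postemergence) application to plants 2–18 cm tall in peat moss/vermiculite medium; surfactant-containing non-phytotoxic solvent vehicle; greenhouse. Visual injury vs controls at 13–15 d; 0 = no effect, 100 = complete control.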

[2] = tested on: barnyardgrass (Echinochloa crus-galli); settings: for Plant response rating, Barnyardgrass: scale 0 to 100, 0 no effect, 100 complete control
In short: as §1

[3] = tested on: blackgrass (Alopecurus myosuroides); settings: for Plant response rating, Blackgrass: scale 0 to 100, 0 no effect, 100 complete control
In short: as §1

[4] = tested on: corn (Zea mays); settings: for Plant response rating, Corn: scale 0 to 100, 0 no effect, 100 complete control
In short: as §1

[5] = tested on: crabgrass, large (large crabgrass, Digitaria sanguinalis); settings: for Plant response rating, Crabgrass, Large: scale 0 to 100, 0 no effect, 100 complete control
In short: as §1

[6] = tested on: foxtail, giant (giant foxtail, Setaria faberii); settings: for Plant response rating, Foxtail, Giant: scale 0 to 100, 0 no effect, 100 complete control
In short: as §1

[7] = tested on: johnsongrass (Sorghum halepense); settings: for Plant response rating, Johnsongrass: scale 0 to 100, 0 no effect, 100 complete control
In short: as §1

[8] = tested on: lambsquarters (Chenopodium album); settings: for Plant response rating, Lambsquarters: scale 0 to 100, 0 no effect, 100 complete control
In short: as §1

[9] = tested on: morningglory (Ipomoea coccinea); settings: for Plant response rating, Morningglory: scale 0 to 100, 0 no effect, 100 complete control
In short: as §1

[10] = tested on: nutsedge, yellow (yellow nutsedge, Cyperus esculentus); settings: for Plant response rating, Nutsedge, Yellow: scale 0 to 100, 0 no effect, 100 complete control
In short: as §1

[11] = tested on: oilseed rape (Brassica napus); settings: for Plant response rating, Oilseed Rape: scale 0 to 100, 0 no effect, 100 complete control
In short: as §1

[12] = tested on: ragweed (common ragweed, Ambrosia elatior); settings: for Plant response rating, Ragweed: scale 0 to 100, 0 no effect, 100 complete control
In short: as §1

[13] = tested on: ryegrass, Italian (Italian ryegrass, Lolium multiflorum); settings: for Plant response rating, Ryegrass, Italian: scale 0 to 100, 0 no effect, 100 complete control
In short: as §1

[14] = tested on: soybean (Glycine max); settings: for Plant response rating, Soybean: scale 0 to 100, 0 no effect, 100 complete control
In short: as §1

[15] = tested on: velvetleaf (Abutilon theophrasti); settings: for Plant response rating, Velvetleaf: scale 0 to 100, 0 no effect, 100 complete control
In short: as §1

[16] = tested on: waterhemp (common waterhemp, Amaranthus rudis); settings: for Plant response rating, Waterhemp: scale 0 to 100, 0 no effect, 100 complete control
In short: as §1

[17] = tested on: wheat (winter wheat, Triticum aestivum); settings: for Plant response rating, Wheat: scale 0 to 100, 0 no effect, 100 complete control
In short: as §1

[18] = 31 g ai/ha, 0 is no effect, 100 is complete control

O=C1NCC(c2ccc(I)cc2)C1C(=O)Nc1cccc(F)c1F (racemic) [Compound 700]
Plant response rating (scale of 0 to 100), Galium [1, 18]: 0
Plant response rating, Galium ([1]; 62 g ai/ha): 0
Plant response rating, Galium ([1]; 125 g ai/ha): 50
Plant response rating, Galium ([1]; 250 g ai/ha): 40
Plant response rating (scale of 0 to 100), Barnyardgrass [2, 18]: 75
Plant response rating, Barnyardgrass ([2]; 62 g ai/ha): 85
Plant response rating, Barnyardgrass ([2]; 125 g ai/ha): 90
Plant response rating, Barnyardgrass ([2]; 250 g ai/ha): 95
Plant response rating (scale of 0 to 100), Blackgrass [3, 18]: 20
Plant response rating, Blackgrass ([3]; 62 g ai/ha): 55
Plant response rating, Blackgrass ([3]; 125 g ai/ha): 60
Plant response rating, Blackgrass ([3]; 250 g ai/ha): 85
Plant response rating (scale of 0 to 100), Corn [4, 18]: 0
Plant response rating, Corn ([4]; 62 g ai/ha): 0
Plant response rating, Corn ([4]; 125 g ai/ha): 10
Plant response rating, Corn ([4]; 250 g ai/ha): 50
Plant response rating (scale of 0 to 100), Crabgrass, Large [5, 18]: 95
Plant response rating, Crabgrass, Large ([5]; 62 g ai/ha): 95
Plant response rating, Crabgrass, Large ([5]; 125 g ai/ha): 95
Plant response rating, Crabgrass, Large ([5]; 250 g ai/ha): 98
Plant response rating (scale of 0 to 100), Foxtail, Giant [6, 18]: 80
Plant response rating, Foxtail, Giant ([6]; 62 g ai/ha): 85
Plant response rating, Foxtail, Giant ([6]; 125 g ai/ha): 90
Plant response rating, Foxtail, Giant ([6]; 250 g ai/ha): 90
Plant response rating (scale of 0 to 100), Johnsongrass [7, 18]: 100
Plant response rating, Johnsongrass ([7]; 62 g ai/ha): 0
Plant response rating, Johnsongrass ([7]; 125 g ai/ha): 10
Plant response rating, Johnsongrass ([7]; 250 g ai/ha): 60
Plant response rating (scale of 0 to 100), Lambsquarters [8, 18]: 0
Plant response rating, Lambsquarters ([8]; 62 g ai/ha): 25
Plant response rating, Lambsquarters ([8]; 125 g ai/ha): 80
Plant response rating, Lambsquarters ([8]; 250 g ai/ha): 85
Plant response rating (scale of 0 to 100), Morningglory [9, 18]: 0
Plant response rating, Morningglory ([9]; 62 g ai/ha): 0
Plant response rating, Morningglory ([9]; 125 g ai/ha): 0
Plant response rating, Morningglory ([9]; 250 g ai/ha): 0
Plant response rating (scale of 0 to 100), Nutsedge, Yellow [10, 18]: 0
Plant response rating, Nutsedge, Yellow ([10]; 62 g ai/ha): 0
Plant response rating, Nutsedge, Yellow ([10]; 125 g ai/ha): 0
Plant response rating, Nutsedge, Yellow ([10]; 250 g ai/ha): 0
Plant response rating (scale of 0 to 100), Oilseed Rape [11, 18]: 0
Plant response rating, Oilseed Rape ([11]; 62 g ai/ha): 30
Plant response rating, Oilseed Rape ([11]; 125 g ai/ha): 60
Plant response rating, Oilseed Rape ([11]; 250 g ai/ha): 50
Plant response rating (scale of 0 to 100), Ragweed [12, 18]: 10
Plant response rating, Ragweed ([12]; 62 g ai/ha): 50
Plant response rating, Ragweed ([12]; 125 g ai/ha): 75
Plant response rating, Ragweed ([12]; 250 g ai/ha): 75
Plant response rating (scale of 0 to 100), Ryegrass, Italian [13, 18]: 0
Plant response rating, Ryegrass, Italian ([13]; 62 g ai/ha): 20
Plant response rating, Ryegrass, Italian ([13]; 125 g ai/ha): 35
Plant response rating, Ryegrass, Italian ([13]; 250 g ai/ha): 45
Plant response rating (scale of 0 to 100), Soybean [14, 18]: 100
Plant response rating, Soybean ([14]; 62 g ai/ha): 0
Plant response rating, Soybean ([14]; 125 g ai/ha): 15
Plant response rating, Soybean ([14]; 250 g ai/ha): 0
Plant response rating (scale of 0 to 100), Velvetleaf [15, 18]: 0
Plant response rating, Velvetleaf ([15]; 62 g ai/ha): 0
Plant response rating, Velvetleaf ([15]; 125 g ai/ha): 20
Plant response rating, Velvetleaf ([15]; 250 g ai/ha): 40
Plant response rating (scale of 0 to 100), Waterhemp [16, 18]: 10
Plant response rating, Waterhemp ([16]; 62 g ai/ha): 65
Plant response rating, Waterhemp ([16]; 125 g ai/ha): 75
Plant response rating, Waterhemp ([16]; 250 g ai/ha): 70
Plant response rating (scale of 0 to 100), Wheat [17, 18]: 0
Plant response rating, Wheat ([17]; 62 g ai/ha): 0
Plant response rating, Wheat ([17]; 125 g ai/ha): 0
Plant response rating, Wheat ([17]; 250 g ai/ha): 70

O=C1NCC(c2cccc(OC(F)F)c2)C1C(=O)Nc1ccc(F)cc1F (centres unmarked) [Compound 421]
Plant response rating, Galium ([1]; 31 g ai/ha): 0
Plant response rating, Galium ([1]; 62 g ai/ha): 0
Plant response rating, Galium ([1]; 125 g ai/ha): 55
Plant response rating, Galium ([1]; 250 g ai/ha): 45
Plant response rating, Barnyardgrass ([2]; 31 g ai/ha): 60
Plant response rating, Barnyardgrass ([2]; 62 g ai/ha): 80
Plant response rating, Barnyardgrass ([2]; 125 g ai/ha): 90
Plant response rating, Barnyardgrass ([2]; 250 g ai/ha): 95
Plant response rating, Blackgrass ([3]; 31 g ai/ha): 40
Plant response rating, Blackgrass ([3]; 62 g ai/ha): 45
Plant response rating, Blackgrass ([3]; 125 g ai/ha): 70
Plant response rating, Blackgrass ([3]; 250 g ai/ha): 70
Plant response rating, Corn ([4]; 31 g ai/ha): 0
Plant response rating, Corn ([4]; 62 g ai/ha): 0
Plant response rating, Corn ([4]; 125 g ai/ha): 60
Plant response rating, Corn ([4]; 250 g ai/ha): 75
Plant response rating, Crabgrass, Large ([5]; 31 g ai/ha): 90
Plant response rating, Crabgrass, Large ([5]; 62 g ai/ha): 95
Plant response rating, Crabgrass, Large ([5]; 125 g ai/ha): 90
Plant response rating, Crabgrass, Large ([5]; 250 g ai/ha): 95
Plant response rating, Foxtail, Giant ([6]; 31 g ai/ha): 80
Plant response rating, Foxtail, Giant ([6]; 62 g ai/ha): 85
Plant response rating, Foxtail, Giant ([6]; 125 g ai/ha): 85
Plant response rating, Foxtail, Giant ([6]; 250 g ai/ha): 90
Plant response rating, Johnsongrass ([7]; 31 g ai/ha): 0
Plant response rating, Johnsongrass ([7]; 62 g ai/ha): 0
Plant response rating, Johnsongrass ([7]; 125 g ai/ha): 0
Plant response rating, Johnsongrass ([7]; 250 g ai/ha): 0
Plant response rating, Lambsquarters ([8]; 31 g ai/ha): 10
Plant response rating, Lambsquarters ([8]; 62 g ai/ha): 35
Plant response rating, Lambsquarters ([8]; 125 g ai/ha): 60
Plant response rating, Lambsquarters ([8]; 250 g ai/ha): 70
Plant response rating, Morningglory ([9]; 31 g ai/ha): 0
Plant response rating, Morningglory ([9]; 62 g ai/ha): 0
Plant response rating, Morningglory ([9]; 125 g ai/ha): 15
Plant response rating, Morningglory ([9]; 250 g ai/ha): 20
Plant response rating, Nutsedge, Yellow ([10]; 31 g ai/ha): 0
Plant response rating, Nutsedge, Yellow ([10]; 62 g ai/ha): 0
Plant response rating, Nutsedge, Yellow ([10]; 125 g ai/ha): 0
Plant response rating, Nutsedge, Yellow ([10]; 250 g ai/ha): 0
Plant response rating, Oilseed Rape ([11]; 31 g ai/ha): 10
Plant response rating, Oilseed Rape ([11]; 62 g ai/ha): 25
Plant response rating, Oilseed Rape ([11]; 125 g ai/ha): 30
Plant response rating, Oilseed Rape ([11]; 250 g ai/ha): 35
Plant response rating, Ragweed ([12]; 31 g ai/ha): 0
Plant response rating, Ragweed ([12]; 62 g ai/ha): 30
Plant response rating, Ragweed ([12]; 125 g ai/ha): 40
Plant response rating, Ragweed ([12]; 250 g ai/ha): 60
Plant response rating, Ryegrass, Italian ([13]; 62 g ai/ha): 40
Plant response rating, Ryegrass, Italian ([13]; 125 g ai/ha): 35
Plant response rating, Ryegrass, Italian ([13]; 250 g ai/ha): 65
Plant response rating, Soybean ([14]; 62 g ai/ha): 0
Plant response rating, Soybean ([14]; 125 g ai/ha): 0
Plant response rating, Soybean ([14]; 250 g ai/ha): 10
Plant response rating, Velvetleaf ([15]; 62 g ai/ha): 20
Plant response rating, Velvetleaf ([15]; 125 g ai/ha): 20
Plant response rating, Velvetleaf ([15]; 250 g ai/ha): 40
Plant response rating, Waterhemp ([16]; 62 g ai/ha): 30
Plant response rating, Waterhemp ([16]; 125 g ai/ha): 80
Plant response rating, Waterhemp ([16]; 250 g ai/ha): 85
Plant response rating, Wheat ([17]; 62 g ai/ha): 0
Plant response rating, Wheat ([17]; 125 g ai/ha): 25
Plant response rating, Wheat ([17]; 250 g ai/ha): 40
